Reference: US11685744B2, “CDK inhibitors and their use as pharmaceuticals” (Prelude Therapeutics, Incorporated, priority 2020, dated 2023)

Legend:
CDK6/Cyclin D1 = CDK6/Cyclin D1 (Homo sapiens (Human), UniProt Q00534); assay: CDK6/CyclinD1 enzymatic activity assay (TR-FRET); format: biochemical; details: ATP 250 μM, read-out: CDK6_D1 IC50
Description: CDK6/CyclinD1 Enzymatic Activity Assay
The inhibitory activity of compounds was evaluated in vitro using TR-FRET assay with white 384-well low volume microplate (Greiner Bio-One). CDK6/Cyclin D1 catalyzed phosphorylation of peptide in the presence and absence of compounds was measured and used in IC50 determination. Recombinant protein complex CDK6/Cyclin D1, expressed from insect cell, was purchased from ProQinase. Testing compounds were dissolved in DMSO at 0.1 mM and tested in 9-dose IC50 mode. The reaction mixture was prepared by mixing CDK6/Cyclin D1 (1 nM final), ULight-4E-BP1 (100 nM final, Perkinelmer, TRF0128-D), and ATP (250 μM final) in assay buffer (20 mM of HEPES pH 7.4, 1 mM of EGTA, 0.05% BSA, 0.005% Tween 20, and 1 mM TCEP). The compound of interest in DMSO was added to each well in 3-fold serial dilution by dispenser (TECAN D300E). After 20 minutes preincubation at room temperature, 0.1 μL MgCl2 (10 mM final) was added to initiate the reaction. Following a 60 minutes incubation at 37° C., the reaction was stopped by addition of 2 μL of quenching buffer consisting of Lance detection buffer (Perkinelmer CR97-100C), 2 nM LANCE Ultra Europium-anti-P-4E-BP1 (Perkinelmer, TRF0216-D), 10 mM EDTA, and incubate at room temperature for additional 60 minutes in dark. The reaction signal was measured by Envision multimode plate reader (PerkinElmer, 2102-0010). IC50 values were determined by fitting the data to the standard 4 parameters with Hill Slope using GraphPad Prism software.

CDK4/Cyclin D1 = CDK4/Cyclin D1 (Homo sapiens (Human), UniProt P11802); assay: CDK4/CyclinD1 enzymatic activity assay (TR-FRET); format: biochemical; details: ATP 2 mM, read-out: CDK4_D1 IC50
In short: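 Insect-cell CDK4/Cyclin D1 (1 nM) with ULight-4E-BP1 (100 nM) and 2 mM ATP in HEPES pH 7.4 buffer, preincubated 20 min with compound (9-dose, 3-fold dilutions); 10 mM MgCl2 started the reaction, run 60 min at 37 °C. EDTA/Eu-anti-phospho-4E-BP1 TR-FRET detection; IC50 from 4-parameter Hill fit.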

[1] = system: MCF7 adenocarcinoma cell line; assay: Cell proliferation studies in MCF7 cells (ATP-Lite, 10 days); format: cell-based; details: Homo sapiens, 240 h, read-out: PROLIFERATION_CTG_MCF7 IC50
In short: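 Cells were seeded at 100 or 200 per well in DMEM with 10% FBS and dosed in quadruplicate over a 9-point 3-fold dilution. Incubation lasted 10 days at 37 °C, with media exchange and re-dosing on day 5. Viability was read by ATP-Lite luminescence and normalised to background and DMSO, giving IC50.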

[2] = Brain-to-plasma ratio (Kp) determination in Sprague-Dawley rats; details: male, rat, po, 10 mg/kg
[3] = brain (homogenate) versus plasma

CDK4/Cyclin D1, sequence (P11802 whole entry): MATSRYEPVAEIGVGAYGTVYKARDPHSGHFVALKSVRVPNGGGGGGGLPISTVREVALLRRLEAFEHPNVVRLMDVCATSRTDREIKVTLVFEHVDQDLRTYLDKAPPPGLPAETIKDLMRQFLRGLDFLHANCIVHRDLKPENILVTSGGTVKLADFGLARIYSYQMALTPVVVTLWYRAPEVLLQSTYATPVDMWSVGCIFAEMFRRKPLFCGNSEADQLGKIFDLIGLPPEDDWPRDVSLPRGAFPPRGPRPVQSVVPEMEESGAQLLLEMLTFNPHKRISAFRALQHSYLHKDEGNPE
CDK4/Cyclin D1, sequence (P24385 whole entry partner): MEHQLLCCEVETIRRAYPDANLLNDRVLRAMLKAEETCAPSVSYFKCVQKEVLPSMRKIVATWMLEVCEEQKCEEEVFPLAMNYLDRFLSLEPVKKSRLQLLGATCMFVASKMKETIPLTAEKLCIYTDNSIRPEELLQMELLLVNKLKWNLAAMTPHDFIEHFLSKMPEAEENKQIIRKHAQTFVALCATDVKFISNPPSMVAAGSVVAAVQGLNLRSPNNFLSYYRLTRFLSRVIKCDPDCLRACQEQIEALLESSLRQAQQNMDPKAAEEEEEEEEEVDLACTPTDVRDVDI
CDK6/Cyclin D1, sequence (Q00534 whole entry): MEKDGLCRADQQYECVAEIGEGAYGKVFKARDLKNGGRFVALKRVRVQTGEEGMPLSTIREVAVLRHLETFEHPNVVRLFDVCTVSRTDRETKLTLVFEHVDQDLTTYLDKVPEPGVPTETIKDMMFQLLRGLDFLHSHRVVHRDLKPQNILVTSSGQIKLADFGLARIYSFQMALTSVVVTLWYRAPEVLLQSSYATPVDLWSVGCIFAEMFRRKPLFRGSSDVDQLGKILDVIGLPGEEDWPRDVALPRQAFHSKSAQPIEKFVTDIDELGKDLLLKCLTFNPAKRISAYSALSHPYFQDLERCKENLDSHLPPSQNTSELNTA
CDK6/Cyclin D1, sequence (P24385 whole entry partner): as the sequence (P24385 whole entry partner) above

With CCN1CCN(c2ccc(Nc3ncc(F)c(-c4sc5c(nc(C)n5C5CCCC5)c4C)n3)nc2)CC1 [Example 1, 4-(3-Cyclopentyl-2,6-dimethyl-3H-thieno[2,3-d]imidazol-5-yl)-N-(5-(4-ethylpiperazin-1-yl)pyridin-2-yl)-5-fluoropyrimidin-2-amine] the IC50 (CDK6/Cyclin D1) was 20 to 200 nM, the IC50 (CDK4/Cyclin D1) was at most 20 nM and the IC50 [1] was 20 to 200 nM. It also gave a Kp at 4 h [2, 3] of 1 to 3.
For CCN1CCN(c2ccc(Nc3ncc(F)c(-c4sc5c(nc(C)n5C(C)C)c4C)n3)nc2)CC1 [Example 2, N-(5-(4-Ethylpiperazin-1-yl)pyridin-2-yl)-5-fluoro-4-(3-isopropyl-2,6-dimethyl-3H-thieno[2,3-d]imidazol-5-yl)pyrimidin-2-amine], the IC50 (CDK6/Cyclin D1) was at most 20 nM, the IC50 (CDK4/Cyclin D1) was at most 20 nM and the IC50 [1] was at most 20 nM. It also gave a Kp at 4 h [2, 3] of 1 to 3.
CCN1CCN(Cc2ccc(Nc3ncc(F)c(-c4sc5c(nc(C)n5C(C)C)c4C)n3)nc2)CC1 [Example 3, N-(5-((4-Ethylpiperazin-1-yl)methyl)pyridin-2-yl)-5-fluoro-4-(3-isopropyl-2,6-dimethyl-3H-thieno[2,3-d]imidazol-5-yl)pyrimidin-2-amine] gave an IC50 (CDK6/Cyclin D1) of 20 to 200 nM, an IC50 (CDK4/Cyclin D1) of at most 20 nM and an IC50 [1] of 20 to 200 nM. The Kp at 4 h [2, 3] was under 1.
Work on CCN1CCN(c2ccc(Nc3ncc(F)c(-c4sc5c(nc(C)n5C5CCC5)c4C)n3)nc2)CC1 [Example 4, 4-(3-Cyclobutyl-2,6-dimethylthieno[2,3-d]imidazol-5-yl)-N-[5-(4-ethylpiperazin-1-yl)pyridin-2-yl]-5-fluoro-pyrimidin-2-amine] yielded an IC50 (CDK6/Cyclin D1) of at most 20 nM, an IC50 (CDK4/Cyclin D1) of at most 20 nM and an IC50 [1] of 20 to 200 nM. The Kp at 4 h [2, 3] was 1 to 3.
With Cc1c(-c2nc(Nc3ccc(N4CCN(C)CC4)cn3)ncc2F)sc2c1nc(C)n2C(C)C [Example 9, 5-Fluoro-4-(3-isopropyl-2,6-dimethyl-3H-thieno[2,3-d]imidazol-5-yl)-N-(5-(4-methylpiperazin-1-yl)pyridin-2-yl)pyrimidin-2-amine] the IC50 (CDK6/Cyclin D1) was at most 20 nM, the IC50 (CDK4/Cyclin D1) was at most 20 nM and the IC50 [1] was at most 20 nM. It also gave a Kp at 4 h [2, 3] of 1 to 3.
In the case of CCN1CC2(C1)CN(c1ccc(Nc3ncc(F)c(-c4cc5nccc(C(C)C)c5s4)n3)nc1)C2 [Example 23, N-[5-(6-Ethyl-2,6-diazaspiro[3.3]heptan-2-yl)pyridin-2-yl]-5-fluoro-4-(7-propan-2-ylthieno[3,2-b]pyridin-2-yl)pyrimidin-2-amine], the IC50 (CDK6/Cyclin D1) is reported as 20 to 200 nM, the IC50 (CDK4/Cyclin D1) is reported as at most 20 nM and the IC50 [1] is reported as 20 to 200 nM. The Kp at 4 h [2, 3] was over 3.
CCN1CCN(c2ccc(Nc3ncc(F)c(-c4cc5c(s4)c(C(C)C)cc[n+]5[O-])n3)nc2)CC1 [Example 50, N-[5-(4-Ethylpiperazin-1-yl)pyridin-2-yl]-5-fluoro-4-(4-oxido-7-propan-2-ylthieno[3,2-b]pyridin-4-ium-2-yl)pyrimidin-2-amine] gave an IC50 (CDK6/Cyclin D1) of at most 20 nM, an IC50 (CDK4/Cyclin D1) of at most 20 nM and an IC50 [1] of at most 20 nM. For the same compound, the Kp at 4 h [2, 3] was 1 to 3.
Compound Cc1c(-c2nc(Nc3ccc(N4CCN(C)CC4)cn3)ncc2F)sc2c(C(C)C)cn(C)c(=O)c12 [Example 51, 2-[5-Fluoro-2-[[5-(4-methylpiperazin-1-yl)pyridin-2-yl]amino]pyrimidin-4-yl]-3,5-dimethyl-7-propan-2-ylthieno[3,2-c]pyridin-4-one] has an IC50 (CDK6/Cyclin D1) of at most 20 nM, an IC50 (CDK4/Cyclin D1) of at most 20 nM and an IC50 [1] of 20 to 200 nM. It also gave a Kp at 4 h ([2]; brain / plasma) of over 3.
For CCN1CC2(C1)CN(c1ccc(Nc3ncc(F)c(-c4sc5c(nc(C)n5C(C)C)c4C)n3)nc1)C2 [Example 52, 4-(2,6-Dimethyl-3-propan-2-ylthieno[2,3-d]imidazol-5-yl)-N-[5-(6-ethyl-2,6-diazaspiro[3.3]heptan-2-yl)pyridin-2-yl]-5-fluoropyrimidin-2-amine], the IC50 (CDK6/Cyclin D1) was at most 20 nM, the IC50 (CDK4/Cyclin D1) was at most 20 nM and the IC50 [1] was at most 20 nM. It also gave a Kp at 4 h [2, 3] of 1 to 3.
CCN1CCN(C(=O)c2ccc(Nc3ncc(F)c(-c4cc5nc(C)n(C(C)C)c5s4)n3)nc2)CC1 [Example 54, (4-Ethylpiperazin-1-yl)-[6-[[5-fluoro-4-(2-methyl-3-propan-2-ylthieno[2,3-d]imidazol-5-yl)pyrimidin-2-yl]amino]pyridin-3-yl]methanone] gave an IC50 (CDK6/Cyclin D1) of 20 to 200 nM, an IC50 (CDK4/Cyclin D1) of at most 20 nM and an IC50 [1] of 20 to 200 nM. It also gave a Kp at 4 h [2, 3] of under 1.
Compound CCN1CC2(C1)CN(c1ccc(Nc3ncc(F)c(-c4sc5c(C(C)C)n(C)nc5c4C)n3)nc1)C2 [Example 55, 4-(2,6-Dimethyl-3-propan-2-ylthieno[3,2-c]pyrazol-5-yl)-N-[5-(6-ethyl-2,6-diazaspiro[3.3]heptan-2-yl)pyridin-2-yl]-5-fluoropyrimidin-2-amine] has an IC50 (CDK6/Cyclin D1) of at most 20 nM, an IC50 (CDK4/Cyclin D1) of at most 20 nM and an IC50 [1] of 20 to 200 nM. It also gave a Kp at 4 h [2, 3] of over 3.
Cc1c(-c2nc(Nc3ccc(C4CCN(C)CC4)cn3)ncc2F)sc2c(C(C)C)cn(C)c(=O)c12 [Example 56, 2-(5-Fluoro-2-((5-(1-methylpiperidin-4-yl)pyridin-2-yl)amino)pyrimidin-4-yl)-7-isopropyl-3,5-dimethylthieno[3,2-c]pyridin-4(5H)-one] gave an IC50 (CDK6/Cyclin D1) of at most 20 nM, an IC50 (CDK4/Cyclin D1) of at most 20 nM and an IC50 [1] of 20 to 200 nM. It also gave a Kp at 4 h [2, 3] of over 3.
With CCN1CC2(C1)CN(c1ccc(Nc3ncc(F)c(-c4sc5c(C(C)C)cn(C)c(=O)c5c4C)n3)nc1)C2 [Example 57, 2-(2-((5-(6-Ethyl-2,6-diazaspiro[3.3]heptan-2-yl)pyridin-2-yl)amino)-5-fluoropyrimidin-4-yl)-7-isopropyl-3,5-dimethylthieno[3,2-c]pyridin-4(5H)-one] the IC50 (CDK6/Cyclin D1) was at most 20 nM, the IC50 (CDK4/Cyclin D1) was at most 20 nM and the IC50 [1] was 20 to 200 nM. It also gave a Kp at 4 h [2, 3] of 1 to 3.
Compound Cc1c(-c2nc(Nc3ccc(C4CCN(C)CC4)cn3)ncc2F)sc2c(C(C)C)c[nH]c(=O)c12 [Example 60, 2-(5-Fluoro-2-((5-(1-methylpiperidin-4-yl)pyridin-2-yl)amino)pyrimidin-4-yl)-7-isopropyl-3-methylthieno[3,2-c]pyridin-4(5H)-one] has an IC50 (CDK6/Cyclin D1) of at most 20 nM, an IC50 (CDK4/Cyclin D1) of at most 20 nM and an IC50 [1] of at most 20 nM. It also gave a Kp at 4 h [2, 3] of under 1.
With Cc1c(-c2nc(Nc3ccc(N4CC5(CCN(C)C5)C4)cn3)ncc2F)sc2c(C(C)C)cn(C)c(=O)c12 [Example 61, 2-(5-Fluoro-2-((5-(6-methyl-2,6-diazaspiro[3.4]octan-2-yl)pyridin-2-yl)amino)pyrimidin-4-yl)-7-isopropyl-3,5-dimethylthieno[3,2-c]pyridin-4(5H)-one] the IC50 (CDK6/Cyclin D1) was at most 20 nM, the IC50 (CDK4/Cyclin D1) was at most 20 nM and the IC50 [1] was at most 20 nM. For the same compound, the Kp at 4 h [2, 3] was 1 to 3.
Compound Cc1nc2cc(-c3nc(Nc4ccc(CN5CCN(CC(F)F)CC5)cn4)ncc3F)sc2n1C(C)C [Example 64, N-[5-[[4-(2,2-Difluoroethyl)piperazin-1-yl]methyl]pyridin-2-yl]-5-fluoro-4-(2-methyl-3-propan-2-ylthieno[2,3-d]imidazol-5-yl)pyrimidin-2-amine] has an IC50 (CDK6/Cyclin D1) of 20 to 200 nM, an IC50 (CDK4/Cyclin D1) of 20 to 200 nM and an IC50 [1] of 200 to 2000 nM. For the same compound, the Kp at 4 h [2, 3] was under 1.
With Cc1c(-c2nc(Nc3ccc(N4CCC(N(C)C)C4)cn3)ncc2F)sc2c1nc(C)n2C(C)C (stereo not shown) [Example 73, N-[5-[3-(Dimethylamino)pyrrolidin-1-yl]pyridin-2-yl]-4-(2,6-dimethyl-3-propan-2-ylthieno[2,3-d]imidazol-5-yl)-5-fluoropyrimidin-2-amine] the IC50 (CDK6/Cyclin D1) was 20 to 200 nM, the IC50 (CDK4/Cyclin D1) was at most 20 nM and the IC50 [1] was 20 to 200 nM. It also gave a Kp at 4 h [2, 3] of 1 to 3.
Compound CCN1C2CC1CN(c1ccc(Nc3ncc(F)c(-c4cc5nc(C)n(C(C)C)c5s4)n3)nc1)C2 [Example 74, N-[5-(6-ethyl-3,6-Diazabicyclo[3.1.1]heptan-3-yl)pyridin-2-yl]-5-fluoro-4-(2-methyl-3-propan-2-ylthieno[2,3-d]imidazol-5-yl)pyrimidin-2-amine] has an IC50 (CDK6/Cyclin D1) of 20 to 200 nM, an IC50 (CDK4/Cyclin D1) of at most 20 nM and an IC50 [1] of 20 to 200 nM. The Kp at 4 h [2, 3] was under 1.
For Cc1c(-c2nc(Nc3ccc(N4CC5(CCN(C)CC5)C4)cn3)ncc2F)sc2c(C(C)C)cn(C)c(=O)c12 [Example 77, 2-(5-Fluoro-2-((5-(7-methyl-2,7-diazaspiro[3.5]nonan-2-yl)pyridin-2-yl)amino)pyrimidin-4-yl)-7-isopropyl-3,5-dimethylthieno[3,2-c]pyridin-4(5H)-one], the IC50 (CDK6/Cyclin D1) was at most 20 nM, the IC50 (CDK4/Cyclin D1) was at most 20 nM and the IC50 [1] was 20 to 200 nM. It also gave a Kp at 4 h [2, 3] of 1 to 3.
